Some results are limits rather than exact numbers.

The target in test [1] is Kallikrein-7 (Homo sapiens, UniProt P49862). In words: Inhibition of recombinant human C-terminal His10-tagged KLK7 (E23 to H252 residues) using MOCAcArg-Pro-Lys-Pro-Val-Glu-Nva-Trp-Arg-Lys(Dnp)-NH2 as substrate preincubated for 10 mins followed by substrate addition measured after 30 mins by fluorescence assay.
Test [2] addresses Kallikrein-7 (Mus musculus, UniProt Q91VE3). The test can be described thus: Inhibition of mouse KLK7 using MOCAcArg-Pro-Lys-Pro-Val-Glu-Nva-Trp-Arg-Lys(Dnp)-NH2 as substrate preincubated for 10 mins followed by substrate addition measured after 30 mins by fluorescence assay.
Test [3] concerns the target Kallikrein-7 (Mus musculus) (UniProt Q91VE3). In words: Inhibition of mouse KLK7 at 30 uM using MOCAcArg-Pro-Lys-Pro-Val-Glu-Nva-Trp-Arg-Lys(Dnp)-NH2 as substrate preincubated for 10 mins followed by substrate addition measured after 30 mins by fluorescence assay relative to control.

Sequence of Kallikrein-7 (Mus musculus) (Q91VE3 whole entry): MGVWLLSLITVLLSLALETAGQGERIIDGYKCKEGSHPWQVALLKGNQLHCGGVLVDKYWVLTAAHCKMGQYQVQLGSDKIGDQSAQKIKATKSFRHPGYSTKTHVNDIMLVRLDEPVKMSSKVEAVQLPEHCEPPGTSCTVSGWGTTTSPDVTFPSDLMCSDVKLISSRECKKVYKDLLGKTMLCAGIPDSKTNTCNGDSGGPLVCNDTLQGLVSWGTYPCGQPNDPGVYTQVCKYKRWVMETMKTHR
Sequence of Kallikrein-7 (Mus musculus, UniProt Q91VE3) (Q91VE3 whole entry): as above
Sequence of Kallikrein-7 (Homo sapiens, UniProt P49862) (P49862 whole entry, the tested form may be a part): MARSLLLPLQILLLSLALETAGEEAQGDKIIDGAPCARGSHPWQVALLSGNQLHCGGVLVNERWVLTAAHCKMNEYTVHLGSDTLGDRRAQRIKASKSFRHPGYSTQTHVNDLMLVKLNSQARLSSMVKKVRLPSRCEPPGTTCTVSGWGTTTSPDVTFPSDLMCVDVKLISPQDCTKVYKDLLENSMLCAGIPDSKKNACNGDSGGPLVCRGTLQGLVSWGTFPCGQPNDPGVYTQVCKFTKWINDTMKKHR

By IC50 is commonly meant the concentration that gives 50% inhibition. Turning to `Cc1cccc(F)c1CC1CN/C(=N\N(C)C)CN(CC(=O)Nc2cccc(-c3cnn(C)c3)c2)C1=O` (racemic), the IC50 in test [1] is 2.3 µM; in test [2] it was 7.7 µM.

What is called inhibition is the change of the read-out against control, counted positive when it falls. For the compound `CN(C)/N=C1/CN(CC(=O)Nc2cccc(-c3cnn(C)c3)c2)C(=O)C(Cc2ccccc2Cl)CN1` (racemic), the IC50 amounted to 2.5 µM in test [1] and 21 µM in test [2]. The inhibition in test [3] turned out to be 59%.

Turning to `COc1cccc(C)c1CC1CN/C(=N\N(C)C)CN(CC(=O)Nc2cccc(-c3cnn(C)c3)c2)C1=O` (racemic), the IC50 in test [1] came out at 13 µM; in test [2], 19 µM.

Regarding `CN(C)/N=C1/CN(CC(=O)Nc2cccc(-c3cnn(C)c3)c2)C(=O)C(Cc2ccccc2C#N)CN1` (racemic), the figures for the IC50 in test [1] and in test [2] were 17 µM and above 30 µM, respectively. Further, in test [3], the inhibition stood at 22%.

Regarding `CN(C)/N=C1/CN(CC(=O)Nc2cccc(-c3cnn(C)c3)c2)C(=O)C(Cc2c(F)cccc2C(F)(F)F)CN1` (racemic), the results for the half-maximal inhibitory concentration (IC50) in test [1] and in test [2] were 2.7 µM and above 30 µM, respectively.

Take `CN(C)/N=C1/CN(CC(=O)Nc2cccc(-c3cnn(C)c3)c2)C(=O)C(Cc2c(Cl)cccc2Cl)CN1` (stereo in doubt; (+)-22g): the IC50 is above 30 µM in test [1] and 16 µM in test [2].

For the compound `CN(C)/N=C1/CN(CC(=O)Nc2cccc(-c3cnn(C)c3)c2)C(=O)C(Cc2c(F)cccc2F)CN1` (racemic), the IC50 was 6.9 µM in test [1] and above 30 µM in test [2].

For `COc1cc(Cl)ccc1CC1CN/C(=N\N(C)C)CN(CC(=O)Nc2cccc(-c3cnn(C)c3)c2)C1=O` (racemic), the half-inhibitory concentration (IC50) is 7.5 µM in test [1] and above 30 µM in test [2]. Further, in test [3], the inhibition is -4.1%.

For the compound `CN(C)/N=C1/CN(CC(=O)Nc2cccc(-c3cnn(C)c3)c2)C(=O)C(Cc2c(Cl)cccc2Cl)CN1` (single isomer, unassigned; (-)), the IC50 turned out to be 0.38 µM in test [1] and 0.7 µM in test [2].

As for `CN(C)/N=C1/CN(CC(=O)Nc2cccc(-c3cnn(C)c3)c2)C(=O)C(Cc2c(F)cccc2Cl)CN1` (racemic), the IC50 in test [1] is 0.94 µM; in test [2], 6 µM.

On to `CN(C)/N=C1/CN(CC(=O)Nc2cccc(-c3cnn(C)c3)c2)C(=O)C(Cc2c(Cl)cccc2Cl)CN1` (racemic), for which the IC50 in test [1] was 0.79 µM; in test [2] it was 1.2 µM.

As to `Cc1cccc(Cl)c1CC1CN/C(=N\N(C)C)CN(CC(=O)Nc2cccc(-c3cnn(C)c3)c2)C1=O` (racemic), the IC50 amounted to 1.5 µM in test [1] and 1.6 µM in test [2].

As for `CN(C)/N=C1/CN(CC(=O)Nc2cccc(-c3cnn(C)c3)c2)C(=O)C(Cc2c(Cl)cccc2C#N)CN1` (racemic), the concentration for half-maximal inhibition (IC50) in test [1] is 11 µM; in test [2], 7.8 µM.

For `Cc1cccc(C)c1CC1CN/C(=N\N(C)C)CN(CC(=O)Nc2cccc(-c3cnn(C)c3)c2)C1=O` (racemic), the IC50 is 5.2 µM in test [1] and 3.8 µM in test [2].

With `COc1ccccc1C[C@@H]1CN/C(=N\N(C)C)CN(CC(=O)Nc2cccc(-c3cnn(C)c3)c2)C1=O`, the IC50 was 2.4 µM in test [1] and above 30 µM in test [2]. For the same compound, the inhibition in test [3] amounted to 41%.

With `COc1ccc(Cl)cc1C[C@@H]1CN/C(=N\N(C)C)CN(CC(=O)Nc2cccc(-c3cnn(C)c3)c2)C1=O`, the inhibition in test [3] is -1.2%. In test [2], this compound showed an IC50 above 30 µM.

For the compound `COc1ccc(Cl)cc1C[C@@H]1CN/C(=N\N(C)C)CN(CC(=O)Nc2cccc(C(=O)O)c2)C1=O`, the inhibition in test [3] is 11%. Moreover, the IC50 in test [2] was above 30 µM.

In the case of `Cc1cccc(C#N)c1CC1CN/C(=N\N(C)C)CN(CC(=O)Nc2cccc(-c3cnn(C)c3)c2)C1=O` (racemic), the IC50 in test [1] came to 11 µM; in test [2] it was 7.1 µM.

For `COc1cccc(Cl)c1CC1CN/C(=N\N(C)C)CN(CC(=O)Nc2cccc(-c3cnn(C)c3)c2)C1=O` (racemic), the IC50 in test [1] was 11 µM; in test [2], 14 µM. Also, the inhibition in test [3] stood at 67%.

Consider `COc1ccc(Cl)cc1C[C@@H]1CN/C(=N\N(C)C)CN([C@@H](C)C(=O)Nc2cccc(-c3cnn(C)c3)c2)C1=O`, for which, in test [3], the inhibition came out at 32%. The compound also yielded a half-inhibitory concentration (IC50) in test [2] above 30 µM.

As for `COc1cccc(F)c1CC1CN/C(=N\N(C)C)CN(CC(=O)Nc2cccc(-c3cnn(C)c3)c2)C1=O` (racemic), the values for the IC50 in test [1] and in test [2] were 6.8 µM and above 30 µM, respectively.
